# Measured values reported in paper PMC11189555, “Aryl amino acetamides prevent Plasmodium falciparum ring development via targeting the lipid-transfer protein PfSTART1” (Nature Communications, 2024).
# System: SLI-N330K parasites
# Test: Growth inhibition assay (72 h, LDH activity)
# Format: cell-based, Plasmodium falciparum
# Protocol: Parasite growth assays with inhibitory compounds were performed as per[11] and are fully described in the Supplementary Information.
# Molecular biology and transfection of P. falciparum: Selection Linked Integration […]
# To introduce the PfSTART1 mutations, the second half of the coding sequence of pfstart1 (PF3D7_0104200), was recodonised without introns to the bias of Saccharomyces cerevisiae containing either WT, N309K or N330K mutations, and synthesised as gBlock fragments (Integrated DNA Technologies). The first 819 bp of the 5′ native sequence of pfstart1 was amplified from gDNA, to form the 5’ homology block (5’ HB). The 3′ recodonised gBlock fragment comprising of the last 552 bp of either the WT, N309K or N330K pfstart1 to form the ‘recodon’ block (primers listed in Table S2). The 5’ HB and recodon products were sewn together by overlapping PCR to reconstitute the full coding sequence of pfstart1. These blocks (WT/N309K/N330K) were digested with BglII/PstI, and inserted into the parasite vector p-HA-2A-Neo-glmS
# 1. This plasmid contains an in -frame haemagglutinin (HA) epitope for protein identification and a P2A peptide (2A) to skip continuous peptide bond synthesis of a downstream neomycin resistance gene ( NeoR).
# Parasites containing the transfected DNA were selected using 2.5 nM WR99210 (Jacobus). To select for parasites in which single crossover integration had occurred into the pfstart1 locus, parasites were treated with 400 μg/mL G418 (geniticin, Sigma Aldrich) for 14 days: only parasites that have integrated the construct into their genome expressed the neomycin resistance gene together with the PfSTART1 protein.
# Parasite lines were cloned using limiting dilution. These clones were then tested on Western Blot (for correct HA-tagging and protein size), and correct integration and sequence were tested by PCR analysis: PCR on the gDNA was conducted using the primers START_5’UTR.F and START_Seq.R (Table S2). […]
# Growth inhibition assays. Synchronised ring-stage parasites (0.3-0.6% parasitemia, 2% haematocrit) were grown for 72 h in a serial-dilution of the compound under […]
# and compound 4. Note that M-833 was first purchased from MolPort (MolPort -002-267-916) then made in-house at WEHI: the differences observed in EC50s across experiments are attributed to the different batches of M -833. For some experiments, 0, 0.25 or 2.5 mM of glucosamine (GlcN) was also added. Experiments were set up in technical duplicates or triplicates. Following a freeze -thaw cycle, lactate dehydrogenase (LDH) activity was assessed as an indicator of parasite growt h 5. 30 μL of parasite culture was incubated for 30 min in the dark with 75 μL Malstat mixture (0.1 M Tris pH 9.0, 20 g/L lactic acid, pH 7.5, 0.2% Triton-X100, 0.5 g/L acetylpyridine adenine dinucleotide (APAD, Sigma), 200 μg/mL nitroblue tetrazolium (NBT; Sigma), 1 μg/mL phenozine ethosulfate (PES; Sigma)). Absorbance was then measured at 650 nm, transformed using the formula below, plotted against the logarithm of the concentrations, and a non-linear regression (log(inhibitor) vs. response, variable slope) was calculated using GraphPad Prism to assess the half-inhibitory […]
# Growth inhibition % = (1 − average(sample)− average(uRBC)) ∗ 100 […]
# The DMSO samples were also used to assess growth of parasite in the presence of 0.25 and 2.5 mM GlcN (normalised by DMSO in 0 mM GlcN).
# Egress, invasion & recovery assay. To measure egress, invasion and follow up recovery in the presence of different compounds, we adapted the method developed in6, using Hyp1-Nluc parasites7. These parasites episomally express the exported PEXEL protein Hyp1 (PF3D7_0113300) tagged with a NanoLuc luciferase (NLuc) and were selected with 2.5 nM WR99210 (Jacobus). Highly synchronised schizonts were obtained using ML10 (LifeArc) and sorbitol synchronisation, and Percoll-purified (the culture was gently layered over 67% Percoll (Cytiva) in RPMI, and centrifuged for 15 min at 1500 g and the schizont layer was collected and washed). […]
smiles,measurement,setting,value
Cc1cc(Cl)c(S(=O)(=O)N2CCCC2)cc1OCC(=O)NC1CCCCC1 [M-833],sample/DMSO,"0.00152416 uM M-833, START(N330K), 0 mM GlcN, biological replicate 2",1.655
same,sample/DMSO,"0.00152416 uM M-833, START(N330K), 0.25 mM GlcN, biological replicate 1",-2.909
same,sample/DMSO,"0.00152416 uM M-833, START(N330K), 0.25 mM GlcN, biological replicate 2",8.825
same,sample/DMSO,"0.00152416 uM M-833, START(N330K), 2.5 mM GlcN, biological replicate 1",11.1758
same,sample/DMSO,"0.00457247 uM M-833, START(N330K), 0 mM GlcN, biological replicate 1",3.2212
same,sample/DMSO,"0.00457247 uM M-833, START(N330K), 0 mM GlcN, biological replicate 2",9.585
same,sample/DMSO,"0.00457247 uM M-833, START(N330K), 0 mM GlcN, biological replicate 3",4.929
same,sample/DMSO,"0.00457247 uM M-833, START(N330K), 0 mM GlcN, biological replicate 4",-5.471
same,sample/DMSO,"0.00457247 uM M-833, START(N330K), 0.25 mM GlcN, biological replicate 1",0.8993
same,sample/DMSO,"0.00457247 uM M-833, START(N330K), 0.25 mM GlcN, biological replicate 2",9.092
same,sample/DMSO,"0.00457247 uM M-833, START(N330K), 0.25 mM GlcN, biological replicate 3",-0.2009
same,sample/DMSO,"0.00457247 uM M-833, START(N330K), 0.25 mM GlcN, biological replicate 4",-11.7886
same,sample/DMSO,"0.00457247 uM M-833, START(N330K), 2.5 mM GlcN, biological replicate 1",14.0279
same,sample/DMSO,"0.00457247 uM M-833, START(N330K), 2.5 mM GlcN, biological replicate 2",17.9639
same,sample/DMSO,"0.00457247 uM M-833, START(N330K), 2.5 mM GlcN, biological replicate 3",-5.165
same,sample/DMSO,"0.00457247 uM M-833, START(N330K), 2.5 mM GlcN, biological replicate 4",-8.571
same,sample/DMSO,"0.0137174 uM M-833, START(N330K), 0 mM GlcN, biological replicate 1",7.141
same,sample/DMSO,"0.0137174 uM M-833, START(N330K), 0 mM GlcN, biological replicate 2",7.124
same,sample/DMSO,"0.0137174 uM M-833, START(N330K), 0 mM GlcN, biological replicate 3",-3.262
same,sample/DMSO,"0.0137174 uM M-833, START(N330K), 0 mM GlcN, biological replicate 4",6.3139
same,sample/DMSO,"0.0137174 uM M-833, START(N330K), 0.25 mM GlcN, biological replicate 1",1.512
same,sample/DMSO,"0.0137174 uM M-833, START(N330K), 0.25 mM GlcN, biological replicate 2",8.325
same,sample/DMSO,"0.0137174 uM M-833, START(N330K), 0.25 mM GlcN, biological replicate 3",2.478
same,sample/DMSO,"0.0137174 uM M-833, START(N330K), 0.25 mM GlcN, biological replicate 4",0
same,sample/DMSO,"0.0137174 uM M-833, START(N330K), 2.5 mM GlcN, biological replicate 1",15.7451
same,sample/DMSO,"0.0137174 uM M-833, START(N330K), 2.5 mM GlcN, biological replicate 2",11.3968
same,sample/DMSO,"0.0137174 uM M-833, START(N330K), 2.5 mM GlcN, biological replicate 3",-4.719
same,sample/DMSO,"0.0137174 uM M-833, START(N330K), 2.5 mM GlcN, biological replicate 4",-3.372
same,sample/DMSO,"0.0411523 uM M-833, START(N330K), 0 mM GlcN, biological replicate 1",8.934
same,sample/DMSO,"0.0411523 uM M-833, START(N330K), 0 mM GlcN, biological replicate 2",2.634
same,sample/DMSO,"0.0411523 uM M-833, START(N330K), 0 mM GlcN, biological replicate 3",5.053
same,sample/DMSO,"0.0411523 uM M-833, START(N330K), 0 mM GlcN, biological replicate 4",-9.704
same,sample/DMSO,"0.0411523 uM M-833, START(N330K), 0.25 mM GlcN, biological replicate 1",4.325
same,sample/DMSO,"0.0411523 uM M-833, START(N330K), 0.25 mM GlcN, biological replicate 2",-8.575
same,sample/DMSO,"0.0411523 uM M-833, START(N330K), 0.25 mM GlcN, biological replicate 3",-3.728
same,sample/DMSO,"0.0411523 uM M-833, START(N330K), 0.25 mM GlcN, biological replicate 4",-6.829
same,sample/DMSO,"0.0411523 uM M-833, START(N330K), 2.5 mM GlcN, biological replicate 1",19.2666
same,sample/DMSO,"0.0411523 uM M-833, START(N330K), 2.5 mM GlcN, biological replicate 2",13.1689
same,sample/DMSO,"0.0411523 uM M-833, START(N330K), 2.5 mM GlcN, biological replicate 3",1.449
same,sample/DMSO,"0.0411523 uM M-833, START(N330K), 2.5 mM GlcN, biological replicate 4",-4.731
same,sample/DMSO,"0.123457 uM M-833, START(N330K), 0 mM GlcN, biological replicate 1",11.901
same,sample/DMSO,"0.123457 uM M-833, START(N330K), 0 mM GlcN, biological replicate 2",1.439
same,sample/DMSO,"0.123457 uM M-833, START(N330K), 0 mM GlcN, biological replicate 3",5.443
same,sample/DMSO,"0.123457 uM M-833, START(N330K), 0 mM GlcN, biological replicate 4",0.2691
same,sample/DMSO,"0.123457 uM M-833, START(N330K), 0.25 mM GlcN, biological replicate 1",10.3138
same,sample/DMSO,"0.123457 uM M-833, START(N330K), 0.25 mM GlcN, biological replicate 2",8.225
same,sample/DMSO,"0.123457 uM M-833, START(N330K), 0.25 mM GlcN, biological replicate 3",5.9375
